Consider one substance from BindingDB's records for doi:10.1016/j.bmcl.2021.128086 (Vrije Universiteit Brussel, 2021).

This test concerns the target T1, Type-2 angiotensin II receptor (Homo sapiens, UniProt P50052).
T1 sequence (P50052 whole entry): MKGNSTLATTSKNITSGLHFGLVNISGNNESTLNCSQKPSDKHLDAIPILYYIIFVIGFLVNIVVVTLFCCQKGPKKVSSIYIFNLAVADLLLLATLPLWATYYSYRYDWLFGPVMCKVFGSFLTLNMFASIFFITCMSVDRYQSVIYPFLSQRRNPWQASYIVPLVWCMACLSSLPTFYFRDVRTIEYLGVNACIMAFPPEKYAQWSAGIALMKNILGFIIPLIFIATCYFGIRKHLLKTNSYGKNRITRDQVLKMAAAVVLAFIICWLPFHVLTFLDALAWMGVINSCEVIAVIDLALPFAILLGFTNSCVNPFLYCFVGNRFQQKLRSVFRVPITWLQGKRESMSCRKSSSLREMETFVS
Nature of the test: Displacement of [125-I]-[Sar1, Ile8] from recombinant human AT2R transfected in human HEK293 cells incubated for 2 hrs by liquid scintillation counter analysis.

A word on the IC50: it is the point on the concentration scale where inhibition reaches its midpoint. As for H-DRVYIYPF-OH, the IC50 was found to be 4 nM.
